{"source": "ChEMBL document CHEMBL1143408", "about": "(Antimicrob Agents Chemother, 2007)", "key": {"[1]": {"assay": "Drug level in human cystic fibrosis patient serum at 2000 mg/20 mins infusion", "type": "ADME, cell-free", "conditions": "iv, read-out: Drug uptake"}, "[2]": {"assay": "Drug level in healthy human serum at 2000 mg/20 mins infusion", "type": "ADME, cell-free", "conditions": "iv, read-out: Drug uptake"}, "Pseudomonas aeruginosa": {"system": "Pseudomonas aeruginosa", "assay": "Antimicrobial activity against Pseudomonas aeruginosa isolated from cystic fibrosis patient sputum culture"}}}
{"molecule": "C[C@H]1[C@H](NC(=O)/C(=N\\OC(C)(C)C(=O)O)c2csc(N)n2)C(=O)N1S(=O)(=O)O", "note": "[AZTREONAM]", "values": [{"measurement": "concentration at 20 min", "setting": "[1]", "value": 228, "unit": "µg/mL"}, {"measurement": "concentration at 20 min", "setting": "[2]", "value": 242, "unit": "µg/mL"}, {"measurement": "MIC", "setting": "Pseudomonas aeruginosa", "value": "≤ 8", "unit": "ng/mL"}]}
